Experimental data reported in patent US12291502B2, “Topoisomerase II-alpha inhibitors and methods of treating cancer using the same” (The Regents of the University of Colorado, priority 2019, dated 2025).
Where “and” joins values, the source holds several entries; their conditions need not be identical. Equal values may be shown once. Read-outs that look alike come from different tables or passages of the source.

Legend:
[1] = system: TOP2A-dependent TCF-transcription in SW620-TOP tumor organoids; assay: TCF (TOPflash) reporter assay in 3D tumor organoids; assay type: cell-based; settings: SW620-TOP tumor organoids, 72 hours; read-out: IC50 inhibition of TCF-transcription
Experimental: TCF reporter assay in 3D Tumor organoid. Stable engineered cells containing pCDH-TOPflash-luc-EF1-puro were used to generate tumor organoid arrayed in 96-well plates and treated for 72 hours. One-Glo™ luciferase reagent and CellTiter-Glo™ 3D cell viability reagent (Promega) were used to determine the TCF reporter activity in viable cells.
After characterizing 3 and 7 as TOP2A ATP-competitive inhibitors, these compounds were next tested for their ability to inhibit TOP2A-dependent TCF-transcription using the well characterized TOPflash (TOP) luminescent reporter, which was used to generate a stably transduced SW620-TOP reporter cells as described previously (Zhou, et al., Oncogene 2016, 35:4990-9). These cells were used to generate single 3D tumor organoids (700 μm in diameter) uniformly arrayed in 96-well plates, which mimic aspects of tumor function observed in vivo. […] Like neo, the mode of action of compounds 3 and 7 also results in significant antitumor activity (FIGS. 3E-3H). […] In other words, the activity of 3 and 7 is long lasting, suppressing CSC stemness and related tumorigenicity. EMT is a major driving force promoting tumor cell invasion and metastasis. […] Tumor organoids were dissociated, and viable cells were washed and plated into the top chamber of 96-well invasion plate coated with Matrigel and incubated for an additional 72 hours without adding any additional compound. […] Taken together, the biological activity of 3 and 7 is consistent with the activity of neo, inhibiting TOP2A-dependent TCF-transcription that in turn reverses EMT while inhibiting the associated tumorigenic properties of mCRC.
A similar trend in IC50 values was observed compared to TOP2A enzyme studies, further supporting our proposed mechanism of action as inhibition of TOP2A-dependent TCF-transcription.
3D Tumor organoid TOPflash reporter assay. […] 35(38): p. 4990-9.] were used to generate tumor organoids arrayed in 96-well plates and treated for 72 h with TOP2A inhibitors. One-Glo™ luciferase reagent and CellTiter-Glo™ 3D cell viability reagent (Promega, WI) were used to determine the TCF reporter activity in viable cells. Briefly, reagents were added to the spheroids at 1:1 ratio (v:v) and the plates were placed on an orbital shaker (300 rpm) for 10 min at room temperature before the luminescence was read with Envision plate reader (PerkinElmer, MA). TCF reporter activity was normalized to organoid viability and inhibitors treated conditions were normalized to DMSO treated controls.

Human TOP2A = molecular target: T1, Human TOP2A (Homo sapiens, UniProt P11388); assay: TOP2A DNA decatenation assay (kDNA, agarose gel); assay type: biochemical; settings: for inhibition at 30 µM: 1 h, decatenation, 30 μM fixed concentration, read-out: % Inhibition TOP2A (30 μM); for IC50: decatenation dose response
T1 construct: purchased TopoGEN (Buena Vista, CO)
Experimental: Inhibition of TOP2A activity. Human TOP2A, kDNA, and assay buffers were obtained from TopoGEN (Buena Vista, CO). The synthesized compounds were screened for their TOP2A inhibitory activity by the intensity of DNA decatenation bands on a DNA gel when compared to the vehicle. Compounds were initially incubated with TOP2A (3 U/reaction) for 20 min at a 30 μM and 1.2% DMSO concentration in a 37° C. incubator without CO2.
The decatenation reaction was initiated immediately after by adding 2 mM ATP and 35 ng/reaction of kDNA, then incubated for 1 hour in a 37° C. water bath. The samples were loaded into a 0.8% agarose gel in 1× Tris-Borate-EDTA (TBE) at a 0.2 μg/mL ethidium bromide concentration and allowed to run in an electrophoretic chamber for 1 hour at 100V. Compounds with the highest inhibitory activity were selected for 2-fold serial dilution dose-response assays (58.6 nM-30 μM). The dose-response assays followed the same protocol with the exception of 4 U/reaction of TOP2A.
Inhibition studies of TOP2A and observed structure activity relationships (SAR). DNA catenation/decatenation or linking/unlinking of DNA is one of the main TOP2A functions essential for regulating DNA topology, and this is ATP dependent. […] Thus, as a starting point, the synthesized analogs were screened against TOP2A-dependent decatenation using 30 μM fixed concentrations, and the DNA from reactions were resolved on 0.8% agarose gels containing ethidium bromide.
Moreover, these studies provided interesting SAR, which shed light on the potential lead drug target binding interactions and affinity, biological activity, and future drug design optimization with this unique class of TOP2A inhibitors.
(§1) TOP2A decatenation assay. Human TOP2A, kDNA, and assay buffers were obtained from TopoGEN (Buena Vista, CO). The synthesized compounds were screened for their TOP2A inhibitory activity by the intensity of DNA decatenation bands on a DNA gel when compared to the vehicle. Compounds were initially incubated with TOP2A (3 U/reaction) for 20 min at a 30 μM and 1.2% DMSO concentration in a 37° C. incubator without CO2. The decatenation reaction was initiated immediately after by adding 2 mM ATP and 35 ng/reaction of kDNA, then incubated for 1 h in a 37° C. water bath. The samples were loaded into a 0.8% agarose gel in 1× Tris-Borate-EDTA (TBE) at a 0.2 μg/mL ethidium bromide concentration and allowed to run in an electrophoretic chamber for 1 h at 100V. Compounds with the highest inhibitory activity were selected for 2-fold serial dilution dose-response assays (58.6 nM-30 μM). The dose-response assays followed the same protocol with the exception of 4 U/reaction of TOP2A,
as §1, with “assays (53.6” for “assays (58.6”, “of TOP2A.” for “of TOP2A,”

SW620 tumor organoids = assay: Tumor organoid cytotoxicity / 3D cell viability (CellTox Green); assay type: cell-based; settings: Homo sapiens, SW-620, Table 2, 72 hours
Experimental: Tumor organoid cytotoxicity. Fluorescence image-based method: The CellTox™ Green assay (Promega, Madison, WI, USA) was used with 3D tumor organoid to measure spheroid death. 0.1% CellTox™ Green was included in each well at the time of analogs dosing. 10% lysis solution was used as a cell death control. Fluorescence was measured at various time points with 465-510 nm excitation and 520-530 nm emission. Luminescence plate reader method: A 1:1 ratio of CellTiter-Glo™ 3D reagent (Promega) was added to 3D tumor organoid and the plate was shaken at 400 rpm for 30 min before luminescence was read with a PerkinElmer Envision plate reader.
Finally, SW620 tumor organoid cytotoxicity experiments were conducted using the CellTox Green assay, a fluorescence image-based method, to determine whether the inhibition of TCF transcription and effects on EMT are not the result of cytotoxicity. […] All of the analogs tested display IC50 dose response >30 μM and were higher compared to the IC50 values obtained during the downregulation of TCF transcription activity, and the EC50 values obtained for EMT modulation. Thus, the biological effects on TCF-transcription and EMT are not a result of tumor organoid cell death.
(§2) Tumor organoid cytotoxicity. SW620 tumor organoids were grown as previously outlined. CellTox™ Green-Express Cytotoxicity Assay (Promega, WI) solution was prepared per manufacturer's protocol. Briefly, organoids were treated for 72 h with CellTox™ Green Express (0.5×) reagent and various doses of TOP2A inhibitors over a range of 0-to-40 μM. Organoids were then imaged using the Opera Phenix HCS system (PerkinElmer, MA). CellTox™ Green Express was excited at 488 nm and emission was detected at 500-550 nm. Mean intensity of the whole well was utilized for calculating cytotoxicity with Lysis Buffer (Promega, WI, 0.025×) as the 0% viability control and 0.4% DMSO as the 100% viability control. Intensity values were normalized to these controls using GraphPad Prism 7.0 (GraphPad, CA).
as §2, with “CellTox™-Green-Express” for “CellTox™ Green-Express”, “(GraphPad.” for “(GraphPad,”

[2] = Water solubility (stated); assay type: physicochemical
[3] = Table 1, read-out: % Inhibition TOP2A (IC50 Values)
[4] = read-out: IC50 TOP2A inhibition

T1 sequence (P11388 whole entry): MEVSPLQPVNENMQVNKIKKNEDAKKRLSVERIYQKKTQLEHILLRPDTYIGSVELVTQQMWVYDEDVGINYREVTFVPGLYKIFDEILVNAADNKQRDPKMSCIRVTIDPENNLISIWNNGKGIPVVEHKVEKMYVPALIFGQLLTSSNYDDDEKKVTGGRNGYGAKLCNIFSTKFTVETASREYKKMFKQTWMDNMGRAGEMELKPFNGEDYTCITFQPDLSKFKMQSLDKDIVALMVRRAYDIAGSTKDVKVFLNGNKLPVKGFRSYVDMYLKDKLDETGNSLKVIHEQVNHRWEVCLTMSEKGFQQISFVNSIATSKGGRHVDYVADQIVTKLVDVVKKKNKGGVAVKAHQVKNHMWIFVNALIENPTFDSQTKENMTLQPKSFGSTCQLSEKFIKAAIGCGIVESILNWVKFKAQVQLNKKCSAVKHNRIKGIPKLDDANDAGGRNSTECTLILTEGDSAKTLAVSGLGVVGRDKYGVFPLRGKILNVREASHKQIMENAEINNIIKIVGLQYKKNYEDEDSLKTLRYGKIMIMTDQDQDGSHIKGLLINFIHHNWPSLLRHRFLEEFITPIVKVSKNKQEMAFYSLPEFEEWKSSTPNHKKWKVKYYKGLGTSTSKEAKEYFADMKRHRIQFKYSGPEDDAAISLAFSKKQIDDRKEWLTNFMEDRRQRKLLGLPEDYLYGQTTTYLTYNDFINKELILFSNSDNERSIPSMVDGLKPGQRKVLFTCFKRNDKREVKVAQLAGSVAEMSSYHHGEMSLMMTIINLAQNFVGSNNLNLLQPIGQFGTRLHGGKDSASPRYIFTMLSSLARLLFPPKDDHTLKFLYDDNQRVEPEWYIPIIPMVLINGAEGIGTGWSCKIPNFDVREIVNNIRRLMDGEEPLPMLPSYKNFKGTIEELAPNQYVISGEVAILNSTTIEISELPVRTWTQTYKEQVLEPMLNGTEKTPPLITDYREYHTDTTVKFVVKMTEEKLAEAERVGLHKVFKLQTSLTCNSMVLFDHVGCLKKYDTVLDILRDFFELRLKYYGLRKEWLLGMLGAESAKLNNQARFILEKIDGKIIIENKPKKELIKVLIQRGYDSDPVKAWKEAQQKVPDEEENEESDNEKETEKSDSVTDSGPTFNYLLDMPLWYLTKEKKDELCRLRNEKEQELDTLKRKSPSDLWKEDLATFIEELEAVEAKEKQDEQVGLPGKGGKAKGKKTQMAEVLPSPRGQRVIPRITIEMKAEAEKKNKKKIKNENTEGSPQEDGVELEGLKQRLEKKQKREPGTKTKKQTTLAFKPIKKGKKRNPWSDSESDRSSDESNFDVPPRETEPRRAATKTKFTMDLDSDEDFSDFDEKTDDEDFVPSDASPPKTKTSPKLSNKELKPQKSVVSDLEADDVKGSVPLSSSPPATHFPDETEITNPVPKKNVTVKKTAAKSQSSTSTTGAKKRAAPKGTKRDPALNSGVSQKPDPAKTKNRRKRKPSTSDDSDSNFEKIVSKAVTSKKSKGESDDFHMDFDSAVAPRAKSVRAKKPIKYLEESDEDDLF

Row | SMILES | IC50 [1] [µM] | inhibition at 30 µM (Human TOP2A; Table 1) [%] | IC50 (Human TOP2A; [3]) [µM] | IC50 (SW620 tumor organoids) [µM] | IC50 (Human TOP2A; [4]) | TOP2A inhibition, result in words (Human TOP2A; decatenation screen at 30 μM) | fold less potent compared to 53 (TOP2A IC50) (Human TOP2A; ratio of TOP2A IC50 values) [fold] | water solubility, in words [2]
1 | CC(=O)Nc1ccc2c(-c3cccs3)ccnc2c1O [Analog 57] | 7 | 100 | 2.3 |  |  |  |  | 
2 | CC(=O)Nc1ccc2c(-c3cc4ccccc4o3)ccnc2c1O [Analog 53] |  | 100 |  | > 30 | 0.24 µM and 0.2 µM | complete inhibitory activity against TOP2A |  | 
3 | O=C(CCN1CCOCC1)Nc1ccc2c(-c3cc4ccccc4o3)ccnc2c1O [Analog 61] |  | 83 | 4.1 |  | 4 µM |  | 20 | maintains water solubility
